{
  "source": "patent US11264117B2",
  "about": "“Neoantigen identification using hotspots” (Gritstone bio, Inc., priority 2017, dated 2022)",
  "system": "IFNγ-producing T-cells",
  "test": "IFN-gamma ELISpot on in vitro expanded (IVS) NSCLC patient PBMCs with patient-specific neoantigen peptide pools or individual peptides",
  "format": "cell-based, human",
  "conditions": "NSCLC patient PBMCs after IVS culture",
  "method": "To do so, archival FFPE tumor biopsies and 5-30 ml of peripheral blood were analyzed from 9 patients with metastatic NSCLC undergoing anti-PD(L)1 therapy (Supplementary Table 2: Patient demographics and treatment information for N=9 patients studied in FIGS. 17A-C. Key fields include tumor stage and subtype, anti-PD1 therapy received, and summary of NGS results.). […] The full MS model was applied to prioritize 20 neoepitopes per patient for testing against pre-existing anti-tumor T-cell responses. To focus the analysis on likely CD8 responses, the prioritized peptides were synthesized as 8-11mer minimal epitopes (Methods), and then peripheral blood mononuclear cells (PBMCs) were cultured with the synthesized peptides in short in vitro stimulation (IVS) cultures to expand neoantigen-reactive T-cells (Supplementary Table 3). After two weeks the presence of antigen-specific T-cells was assessed using IFN-gamma ELISpot against the prioritized neoepitopes. In seven patients for whom sufficient PBMCs were available, separate experiments were also performed to fully or partially deconvolve the specific antigens recognized. The results are depicted in FIGS. 17A-C and 18A-21.\nFIG. 17A depicts detection of T-cell responses to patient-specific neoantigen peptide pools for nine patients. […]",
  "note": "Ends that are not written are not given here.",
  "data": [
    {"sequence": "GTKKDVDVLK", "values": [
      {"measurement": "T-cell recognition of individual peptide", "value": "recognized by CD8 T-cells"}
    ]}
  ]
}
